According to patent EP4813978A1, “COMPOUND TARGETING UBIQUITIN KRAS PROTEIN DEGRADATION AGENT, AND USE THEREOF” (Betta Pharmaceuticals Co., Ltd, priority 2023, dated 2025):

Key:
Format in all cases: cell-based
AGS = experiment: Cell proliferation assay (Cell-titer Glo), AGS; settings: KRAS G12D, 96 h
Protocol: (§1) Cells with different mutations were seeded in low-attachment transparent 96-well plates at the seeding densities shown in Table 1, and incubated overnight in a cell culture incubator. After the cells adhered, the test compounds were added to the 96-well plates at final concentrations of 20000 nM, 5000 nM, 1250 nM, 312.5 nM, 78.13 nM, 19.53 nM, 4.88 nM, 1.22 nM, 0.31 nM, 0 nM (the final concentration of DMSO was 0.25% in all wells). After culturing at 37°C for 96 h, 50 µL of Cell-titer Glo working solution was added to each well. The plates were shaken to mix and then incubated at room temperature for 10 min. Luminescence values were read on a multimode microplate reader, and the luminescence data were converted into percentage inhibition. The percentage of cell proliferation inhibition was calculated according to the following formula: Percentage inhibition = (1−(TestValue−Blank)/(MaxValue−Blank)) × 100% [formula]
(§2) ("Max value" is from the 0.25% DMSO control wells, "Blank" is from the blank medium control wells, and "Test Value" is from the compound-treated wells).
(§3) Curve fitting was performed using GraphPad Prism software to obtain IC50 (nM) values.

SW620 = experiment: Cell proliferation assay (Cell-titer Glo), SW620; settings: Homo sapiens, SW-620, SW620, KRAS G12V, 96 h
Protocol: as §1, §2, §3

H358 = experiment: Cell proliferation assay (Cell-titer Glo), H358; settings: Homo sapiens, NCI-H358, H358, KRAS G12C, 96 h
Protocol: as §1, §2, §3

Mia-Paca2 = experiment: Cell proliferation assay (Cell-titer Glo), Mia-Paca2; settings: 96 h
Protocol: as §1, §2, §3

Panc0403 = experiment: Cell proliferation assay (Cell-titer Glo), Panc0403; settings: Homo sapiens, Panc 04.03, Panc0403, KRAS G12D, 96 h
Protocol: as §1, §2, §3

AsPC-1 = experiment: Cell proliferation assay (Cell-titer Glo), AsPC-1; settings: Homo sapiens, ASPC1, AsPC-1, KRAS G12D, 96 h
Protocol: as §1, §2, §3

MKN-1 = experiment: Cell proliferation assay (Cell-titer Glo), MKN-1; settings: Homo sapiens, MKN-1, KRAS WT-Amp, 96 h
Protocol: as §1, §2, §3

[1] = Homo sapiens, MIA PaCa-2, Mia-Paca2, KRAS G12C

Compound: CCc1c(F)ccc2cc(O)cc(-c3ncc4c(N5CCOC[C@@](C)(O)C5)nc(OCC5(CN6CCC(Oc7cnc(-c8cn([C@H](C(=O)N9C[C@H](O)C[C@H]9C(=O)N[C@@H](C)c9ccc(-c%10scnc%10C)cc9)C(C)C)nn8)cn7)CC6)CC5)nc4c3F)c12 [Compound 114, (2S,4R)-1-((S)-2-(4-(5-((1-((1-(((7-(8-ethyl-7-fluoro-3-hydroxynaphthalen-1-yl)-8-fluoro-4-((S)-6-hydroxy-6-methyl-1,4-oxazepan-4-yl)pyrido[4,3-d]pyrimidin-2-yl)oxy)methyl)cyclopropyl)methyl)piperidin-4-yl)oxy)pyrazin-2-yl)-1H-1,2,3-triazol-1-yl)-3-methylbutanoyl)-4-hydroxy-N-((S )-1-(4-(4-methylthiazol-5-yl)phenyl)ethyl)pyrrolidine-2-carboxamide]
- IC50 (AGS; Homo sapiens): 2.7 nM
- IC50 (SW620): 10 nM

Compound: CCc1c(F)ccc2cc(O)cc(-c3nc4c5c(nc(OCC6(CN7CCC(Oc8cnc(-c9cn([C@H](C(=O)N%10C[C@H](O)C[C@H]%10C(=O)N[C@@H](C)c%10ccc(-c%11scnc%11C)cc%10)C(C)C)nn9)cn8)CC7)CC6)nc5c3F)N3CCCC(C)(O)C3CO4)c12 (stereo partly drawn) [Compound 133, (2S,4R)-1-((2S)-2-(4-(5-((1-((1-(((5-(8-ethyl-7-fluoro-3-hydroxynaphthalen-1-yl)-4-fluoro-9-hydroxy-9-methyl-8,8a,9,10,11,12-hexahydro-7-oxa-1,3,6,12a-tetraazabenzo[4,5]cyclohepta[1,2,3-de]naphthalen-2-yl)oxy)methyl)cyclopropyl)methyl)piperidin-4-yl)oxy)pyrazin-2-yl)-1H-1,2,3-triazol-1-yl)-3-methylbutanoyl)-4-hydroxy-N-((S)-1-(4-(4-methylthiazol-5-yl)phenyl)ethyl)pyrrolidine-2-carboxamide]
- IC50 (AGS; Homo sapiens): 15 nM
- IC50 (SW620): 36 nM
- IC50 (H358): 40 nM
- IC50 (Mia-Paca2; [1]): 26 nM

Compound: CCc1c(F)ccc2cc(O)cc(-c3ncc4c(N5CCOC[C@@](C)(O)C5)nc(OCC5(CN6CCC(Oc7cnc(-c8cn([C@H](C(=O)N9C[C@H](O)C[C@H]9C(=O)N[C@@H](CN(C)C)c9ccc(-c%10scnc%10C)cc9)C(C)C)nn8)cn7)CC6)CC5)nc4c3F)c12 [Compound 131, (2S,4R)-N-((R)-2-(dimethylamino)-1-(4-(4-methylthiazol-5-yl)phenyl)ethyl)-1-((S)-2-(4-(5-((1-((1-(((7-(8-ethyl-7-fluoro-3-hydroxynaphthalen-1-yl)-8-fluoro-4-((S)-6-hydroxy-6-methyl-1,4-oxazepan-4-yl)pyrido[4,3-d]pyrimidin-2-yl)oxy)methyl)cyclopropyl)methyl)piperidin-4-yl)oxy)pyrazin-2-yl)-1H-1,2,3-triazol-1-yl)-3-methylbutanoyl)-4-hydroxypyrrolidine-2-carboxamide]
- IC50 (AGS; Homo sapiens): 4.4 nM
- IC50 (SW620): 15 nM
- IC50 (H358): 8.4 nM
- IC50 (Mia-Paca2; [1]): 5.3 nM

Compound: CCc1c(F)ccc2cc(O)cc(-c3ncc4c(N5CCCS(=O)(=O)C5)nc(OCC5(CN6CCC(Oc7cnc(-c8cn([C@H](C(=O)N9C[C@H](O)C[C@H]9C(=O)N[C@@H](C)c9ccc(-c%10scnc%10C)cc9)C(C)C)nn8)cn7)CC6)CC5)nc4c3F)c12 [Compound 7, (2S,4R)-1-((S)-2-(4-(5-((1-((1-(((4-(1,1-dioxido-1,3-thiazinan-3-yl)-7-(8-ethyl-7-fluoro-3-hydroxynaphthalen-1-yl)-8-fluoropyrido[4,3-d]pyrimidin-2-yl)oxy)methyl)cyclopropyl)methyl)piperidin-4-yl)oxy)pyrazin-2-yl)-1H-1,2,3-triazol-1-yl)-3-methylbutanoyl)-4-hydroxy-N-((S)-1-(4-(4-methylthiazol-5-yl)phenyl)ethyl)pyrrolidine-2-carboxamide]
- IC50 (AGS; Homo sapiens): 6.2 nM
- IC50 (SW620): 31 nM

Compound: CCc1c(F)ccc2cc(O)cc(-c3ncc4c(N5CCCC6(CCO6)C5)nc(OCC5(CN6CCN(c7ccc(-c8cn([C@H](C(=O)N9C[C@H](O)C[C@H]9C(=O)N[C@@H](C)c9ccc(-c%10scnc%10C)cc9)C(C)C)nn8)cn7)CC6)CC5)nc4c3F)c12 (stereo partly drawn) [Compound 111, (2S,4R)-1-((2S)-2-(4-(6-(4-((1-(((7-(8-ethyl-7-fluoro-3-hydroxynaphthalen-1-yl)-8-fluoro-4-(1-oxa-6-azaspiro[3.5]nonan-6-yl)pyrido[4,3-d]pyrimidin-2-yl)oxy)methyl)cyclopropyl)methyl)piperazin-1-yl)pyridin-3-yl)-1H-1,2,3-triazol-1-yl)-3-methylbutanoyl)-4-hydroxy-N-((S)-1-(4-(4-methylthiazol-5-yl)phenyl)ethyl)pyrrolidine-2-carboxamide]
- IC50 (AGS; Homo sapiens): 30 nM
- IC50 (SW620): 43 nM
- IC50 (H358): 56 nM

Compound: CCc1c(F)ccc2cc(O)cc(-c3ncc4c(N5CCCCC(=O)C5)nc(OCC5(CN6CCC(Oc7cnc(-c8cn([C@H](C(=O)N9C[C@H](O)C[C@H]9C(=O)N[C@@H](C)c9ccc(-c%10scnc%10C)cc9)C(C)C)nn8)cn7)CC6)CC5)nc4c3F)c12 [Compound 113, (2S,4R)-1-((S)-2-(4-(5-((1-((1-(((7-(8-ethyl-7-fluoro-3-hydroxynaphthalen-1-yl)-8-fluoro-4-(3-oxoazepan-1-yl)pyrido[4,3-d]pyrimidin-2-yl)oxy)methyl)cyclopropyl)methyl)piperidin-4-yl)oxy)pyrazin-2-yl)-1H-1,2,3-triazol-1-yl)-3-methylbutanoyl)-4-hydroxy-N-((S)-1-(4-(4-methylthiazol-5-yl)phenyl)ethyl)pyrrolidine-2-carboxamide]
- IC50 (AGS; Homo sapiens): 80 nM
- IC50 (SW620): 325 nM

Compound: CCc1c(F)ccc2cc(O)cc(-c3ncc4c(N5CCC[C@](O)(CC#N)C5)nc(OCC5(CN6CCC(Oc7cnc(-c8cn([C@H](C(=O)N9C[C@H](O)C[C@H]9C(=O)N[C@@H](C)c9ccc(-c%10scnc%10C)cc9)C(C)C)nn8)cn7)CC6)CC5)nc4c3F)c12 [Compound 57, (2S,4R)-1-((S)-2-(4-(5-((1-((1-(((4-((S)-3-(cyanomethyl)-3-hydroxypiperidin-1-yl)-7-(8-ethyl-7-fluoro-3-hydroxynaphthalen-1-yl)-8-fluoropyrido[4,3-d]pyrimidin-2-yl)oxy)methyl)cyclopropyl)methyl)piperidin-4-yl)oxy)pyrazin-2-yl)-1H-1,2,3-triazol-1-yl)-3-methylbutanoyl)-4-hydroxy-N-((S)-1-(4-(4-methylthiazol-5-yl)phenyl)ethyl)pyrrolidine-2-carboxamide]
- IC50 (AGS; Homo sapiens): 5 nM
- IC50 (SW620): 18 nM
- IC50 (H358): 20 nM

Compound: CCc1c(F)ccc2cc(O)cc(-c3nc4c5c(nc(OCC6(CN7CCC(Oc8cnc(-c9cn([C@H](C(=O)N%10C[C@H](O)C[C@H]%10C(=O)N[C@@H](C)c%10ccc(-c%11scnc%11C)cc%10)C(C)C)nn9)cn8)CC7)CC6)nc5c3F)N3CCCOC[C@H]3CO4)c12 [Compound 112, (2S,4R)-1-((S)-2-(4-(5-((1-((1-((((S)-2-(8-ethyl-7-fluoro-3-hydroxynaphthalen-1-yl)-1-fluoro-5a, 6,9,10-tetrahydro-5H,8H-4,7-dioxa-3,10a,11,13-tetraazanaphtho[1,8-ab]heptalen-12-yl)oxy)methyl)cyclopropyl)methyl)piperidin-4-yl)oxy)pyrazin-2-yl)-1H-1,2,3-triazol-1-yl)-3-methylbutanoyl)-4-hydroxy-N-((S)-1-(4-(4-methylthiazol-5-yl)phenyl)ethyl)pyrrolidine-2-carboxamide]
- IC50 (AGS; Homo sapiens): 4.4 nM
- IC50 (SW620): 20 nM
- IC50 (Panc0403): 6.5 nM
- IC50 (AsPC-1): 2.6 nM
- IC50 (MKN-1): 0.4 nM

Compound: (2S,4R)-1-((2S)-2-(4-(5-((1-((1-(((7-(8-ethyl-7-fluoro-3-hydroxynaphthalen-1-yl)-8-fluoro-4-(3-h ydroxy-3-methylazepan-1-yl)pyrido[4,3-d]pyrimidin-2-yl)oxy)methyl)cyclopropyl)methyl)piperi din-4-yl)oxy)pyrazin-2-yl)-1H-1,2,3-triazol-1-yl)-3-methylbutanoyl)-4-hydroxy-N-((S)-1-(4-(4-methylthiazol-5-yl)phenyl)ethyl)pyrrolidine-2-carboxamide [Compound 134]
- IC50 (AGS): 34 nM
- IC50 (Mia-Paca2; Mia-Paca2, KRAS G12C): 67 nM

Compound: CCc1c(F)ccc2cc(O)cc(-c3ncc4c(N5CCCOCC5)nc(OCC5(CN6CCC(Oc7cnc(-c8cn([C@H](C(=O)N9C[C@H](O)C[C@H]9C(=O)N[C@@H](C)c9ccc(-c%10scnc%10C)cc9)C(C)C)nn8)cn7)CC6)CC5)nc4c3F)c12 [Compound 5, (2S,4R)-1-((S)-2-(4-(5-((1-((1-(((7-(8-ethyl-7-fluoro-3-hydroxynaphthalen-1-yl)-8-fluoro-4-(1,4-oxazepan-4-yl)pyrido[4,3-d]pyrimidin-2-yl)oxy)methyl)cyclopropyl)methyl)piperidin-4-yl)oxy)pyrazin-2-yl)-1H-1,2,3-triazol-1-yl)-3-methylbutanoyl)-4-hydroxy-N-((S)-1-(4-(4-methylthiazol-5-yl)phenyl)ethyl)pyrrolidine-2-carboxamide]
- IC50 (AGS; Homo sapiens): 20 nM
- IC50 (SW620): 34 nM
- IC50 (H358): 55 nM
